Our source for the IC50 values is US5385918A, “Aminomethylene-peptides as immunosuppressants” (Miles Inc., priority 1993, dated 1995).

The subject of one assay is human T-cells. As to the kind of experiment: Suppression of Human T-Cell Proliferation Assay (PHA-stimulated, [3H]-thymidine incorporation). Type of assay: cell-based. To be noted: inhibition of [3H]-thymidine incorporation of PHA-stimulated purified human T-cells, 72 hours. From the text: Inhibition of mitogen-induced T-cell proliferation can be used to profile immunosuppressive activity of test compounds. In the description of the assay which follows, mitogen-induced T-cell proliferation was used to test the inhibitory potencies of select compounds of the present invention.
In an assay similar to that described by Bradley in Mishell et al. (Eds.), 1980, Selected Methods in Cellular Immunology, pp 156-161, W. H. Freeman & Co., San Fransisco, Calif., T-cells were stimulated by incubation with phytohemagglutinin (PHA) which binds to cell surface molecules, including the T-cell receptor. This stimulation results in proliferation which can be measured by incorporation of [^3 H]-thymidine into cellular DNA.
Fresh LeukoPaks were obtained from the New York Blood Center, New York, N.Y. The cells, including erythrocytes and leukocytes, were diluted with Hank's Balanced Salt Solution (HBSS) (GIBCO, Grand Island, N.Y.) and layered over Lymphoprep (Nycomed Pharma AS, Oslo, Norway) in sterile 50 ml conical centrifuge tubes. Lymphocytes were isolated at the Hank's/Nycomed interface after centrifugation at 2000×g, 4° C. for 15 min. The lymphocytes were washed with Minimal Essential Medium (GIBCO) containing 2% fetal bovine serum (FBS) (Sigma Chemical Co., St. Louis, Mo.), 1% HEPES buffer (GIBCO) and 1% Penicillin-Stretomycin solution (GIBCO).
T-cells were further purified essentially by sheep erythrocyte (SRBC) rosetting as described by Morimoto et al., 1983, J. Immunol. 130:157. The isolated lymphocytes were adjusted to 2×10^7 cells/ml and 5 ml aliquots of the cell suspension were incubated for 10 minutes at room temperature with 5 ml of a 5% SRBC (Cappel, Organon Technika Corp., West Chester, Pa.) suspension. The cells were gently pelleted by centrifugation at 300 rpm for 10 minutes, followed by a 1 hour incubation at room temperature to allow rosette formation. The cells were gently resuspended,layered over Lymphoprep and centrifuged for 30 minutes at 500×g. The pellet, containing rosetted T-cells and SRBC was treated with ice cold buffered ammonium chloride (GIBCO) to lyse the erythrocytes. T-cells were washed twice with HBSS.
Purified T-cells were resuspended at 2×10^6 cells/ml in complete culture medium composed of RPMI-1640 (Whittaker Bioproducts, Walkerville, Md.) with 10% FBS (Sigma), 2 mM L-glutamine (GIBCO), 1% Penicillin-Streptomycin (GIBCO) and 15 mM HEPES (GIBCO). In 96-well plates (Becton Dickinson, Lincoln Park, N.J.), 0.1 ml aliquots of T-cell suspension were mixed with 0.05 ml of 40 μg/ml PHA-M (Sigma). The compounds of this invention were dissolved in dimethylsulfoxide at 10 mM and various dilutions in complete medium were added in duplicate wells (0.05 ml/well). The plates were incubated at 37° C. in a humidified atmosphere of 5% carbon dioxide and 95% air for 72 hours.
Proliferation was assessed by measurement of [^3 H]-thymidine incorporation. During the last 6 hours of incubation, the cells were pulse labelled with 1 μCi/well of [^3 H]-thymidine (New England Nuclear, Boston, Mass.). The cells were harvested onto glass fiber paper using a plate harvester and the radioactivity incorporated into cellular DNA corresponding to individual wells was measured by standard liquid scintillation counting methods. The mean counts per minute (CPM) of replicate wells was calculated and linear regression analysis of mean CPM versus compound concentration was used to determine the concentration of compound which would inhibit [^3 H]-thymidine incorporation of T-cells by 50% (IC50).
(Dividing cells build labelled thymidine or BrdU into new DNA.)

Another assay has as its target FKBP (Homo sapiens, UniProt P62942). Kind of assay: PPIase Inhibition Assay. To be noted: inhibition of PPIase activity of FKBP, substrate Succinyl-Ala-Phe-Pro-Phe-para-nitroanilide. The format is biochemical. On the procedure:
This assay follows in principle the procedure described in Kofron et al., 1991, Biochemistry 30:6127. The three main reagents used are PPIase, a substrate for PPIase, and a selected inhibitor compound of the present invention. The basic principle behind this assay is the conversion of the cis isomer of the substrate to the trans form, which conversion is catalyzed by PPIase. Essentially, inhibition of this PPIase activity is measured for the selected compounds. A peptide chymotrypsin substrate containing a proline in the P2 position is only cleaved by chymotrypsin when the Phe-Pro bond is in the trans isomeric configuration. In the presence of excess chymotrypsin, all of the trans peptide isomers are cleaved within approximately five seconds, leaving only cis forms.
The cis peptide will spontaneously convert to the trans isomer at a slow rate. The cis to trans conversion is catalyzed by isomerases at a much faster rate than this spontaneous conversion. Proteins with PPIase activity are examples of such isomerases. After isomerization, the peptide is cleaved by chymotrypsin releasing p-nitroaniline which can be monitored at 390 nm. The rate of release is then calculated using a first order rate plus offset equation utilizing the ENZFITTER program (Leatherbarrow, BIOSOFT, Cambridge, United Kingdom).
In a plastic cuvette are added 950 ul of ice cold assay buffer (25 mM HEPES, pH 7.8, 100 mM NaCl), 10 uL of FKBP (2.5 uM in 10 mM Tris-Cl pH 7.5, 100 mM NaCl, 1 mM dithiothreitol), 25 ul of chymotrypsin (50 mg/ml in 1 mM HCl) and 10 ul of the test compound at various concentrations in dimethyl sulphoxide. The reaction is initiated by addition of 5 ul of substrate (Succinyl-Ala-Phe-Pro-Phe-para-nitroanilide, 5 mg/ml in 235 mM LiCl in trifluoroethanol).
The absorbance at 390 nm versus time is monitored for 90 sec using a Beckman DU70 spectrophotometer. The absorbance versus time data files are transferred to an IBM XT computer and the rate constants determined using the commercial Enzfitter program. For each set of data, the uncatalyzed rate of conversion is measured and the uninhibited enzymatic rate determined. The data are expressed as % Inhibition and are calculated as follows: [formula] where kobs is the rate in the presence of a selected test compound, kuncat is the rate in the absence of enzyme, and kuninh is the rate in the presence of enzyme and absence of inhibitor. Data are plotted as percent inhibition versus concentration of inhibitor. The values of the concentration of inhibitor required for 50% inhibition of enzyme activity (IC50) were determined by nonlinear least squares regression analysis.

Some results are limits rather than exact numbers.

The term IC50 denotes the point on the concentration scale where inhibition reaches its midpoint. High values mean lower potency, low ones higher potency.

Sequence of FKBP (P62942 whole entry): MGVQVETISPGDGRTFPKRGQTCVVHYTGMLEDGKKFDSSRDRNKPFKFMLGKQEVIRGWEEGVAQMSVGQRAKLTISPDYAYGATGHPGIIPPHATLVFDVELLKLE

For the compound `CC[C@H](C)[C@H](NC(=O)[C@@H]1CCCN1CC(CC(C)C)NC(=O)OC(C)(C)C)C(=O)OCc1ccccc1` (stereo partly drawn) [Example 5, 1-[1-[2-[[(1,1-Dimethylethoxy)carbonyl]amino]-4-methylpentyl]-L-proline]-L- Isoleucine Phenylmethyl Ester], the concentration for half-maximal inhibition (IC50) in the assay with human T-cells stood at 27000 nM; at FKBP, 3000 nM.

Regarding `CC[C@H](C)[C@H](NC(=O)[C@@H]1CCCCN1C[C@@H](NC(=O)CC(C)C)[C@@H](C)CC)C(=O)NCc1ccccc1` [Example 23, 1-[1-[2-(S)-[(3-methyl-butyryl)-amino]-3-(S)-methylpentyl]-L-homoproline]-L -isoleucine benzylamide], the IC50 in the assay with human T-cells stood at 900 nM.

As for `CC[C@H](C)[C@H](NC(=O)[C@@H]1CCCN1C[C@H](CC(C)C)NC(=O)[C@H](CC(N)=O)NC(=O)OC(C)(C)C)C(=O)OCc1ccccc1` [Example 10, 1-[1-[2-(S)-[[4-Amino-2-(S)-[[(1,1-dimethylethoxy)-carbonyl]amino]-1,4-dioxobutyl]amino]-4-methylpentyl]-L-proline]-L-isoleucine Phenylmethyl Ester], the concentration for half-maximal inhibition (IC50) is 30000 nM in the assay on human T-cells and 900 nM at FKBP.

Turning to `CC[C@H](C)[C@H](NC(=O)[C@@H]1CCCN1CC(CC(C)C)NC(=O)[C@H](CC1CCCCC1)NC(=O)OC(C)(C)C)C(=O)OCc1ccccc1` (stereo partly drawn) [Example 11, 1-[1-[2-[[3-Cyclohexyl-2-(S)-[[(1,1-dimethylethoxy)-carbonyl]amino]-1-oxopropyl]amino]-4-methylpentyl]-L-proline]-L-isoleucine Phenylmethyl Ester], the IC50 in the assay on human T-cells is under 6000 nM; against FKBP, 8400 nM.

In the assay with human T-cells, `CC[C@H](C)[C@H](NC(=O)[C@@H]1CCCCN1C[C@@H](NC(=O)CC(C)(C)C)[C@@H](C)CC)C(=O)NCc1ccccc1` [Example 22, 1-[1-[2-(S)-[(3,3-dimethyl-butyryl)-amino]-3-(S)-methylpentyl]-L-homoproline]-L-isoleucine benzylamide] showed an IC50 of 1000 nM.

On to `CC[C@H](C)[C@H](NC(=O)[C@@H]1CCCN1C[C@H](CC(C)C)NC(=O)[C@@H](N)CC1CCCCC1)C(=O)OCc1ccccc1` [Example 13, 1-[1-[2-(S)-[[2-(S)-amino-3-cyclohexyl-1-oxopropyl]-amino]-4-methylpentyl]-L-proline]-L-isoleucine Phenylmethyl Ester], for which the IC50 with human T-cells is under 6000 nM; at FKBP, 1300 nM.

In the case of `COC(=O)[C@H](Cc1ccc(OC)cc1)N(C)C(=O)[C@@H]1CCCN1C[C@H](CC(C)C)NC(=O)OC(C)(C)C` [Example 9, 1-Methyl-1-[1-[2-(S)-[[(1,1-dimethylethoxy)carbonyl]amino]-4-methylpentyl]-L-proline]-L-Tyrosine(O-Methyl)Methyl Ester], the IC50 with human T-cells was 16000 nM; against FKBP, over 50000 nM.

Regarding `CC[C@H](C)[C@H](NC(=O)[C@@H]1CCCCN1C[C@@H](NC(=O)C(C)(C)C)[C@@H](C)CC)C(=O)NCc1ccccc1` [Example 21, 1-[1-[2-(S)-[(2,2-Dimethyl-propionyl)-amino]-3-(S)-methylpentyl]-L-homoproline]-L-isoleucine benzylamide], inhibition with human T-cells was half-maximal at 720 nM (IC50).

Regarding `CC[C@H](C)[C@H](NC(=O)[C@@H]1CCCN1C[C@H](CC(C)C)NC(=O)[C@H](CC(N)=O)NC(=O)[C@@H](N)Cc1ccccc1)C(=O)OCc1ccccc1` [Example 15, 1-[1-[2-(S)-[[1-[2-(S)-Amino-1-Oxo-3-phenylpropyl]-L-asparaginyl]amino]-4-methylpentyl]-L-proline]-L-isoleucine Phenylmethyl Ester], the IC50 at FKBP was 2500 nM.

As for `CCCC(=O)N[C@H](CN1CCCC[C@H]1C(=O)N[C@H](C(=O)NCc1ccccc1)[C@@H](C)CC)[C@@H](C)CC` [Example 24], the half-maximal inhibitory concentration (IC50) in the assay on human T-cells amounted to 1700 nM.

For the compound `CC[C@H](C)[C@H](NC(=O)[C@@H]1CCCN1C[C@H](CC(C)C)NC(=O)[C@@H](N)CC(N)=O)C(=O)OCc1ccccc1` [Example 12], the figures for the half-inhibitory concentration (IC50) in the assay on human T-cells and at FKBP were under 6000 nM and 2400 nM, respectively.
